Test results: PMC8448163 (Antimicrobial Agents and Chemotherapy, 2021)
“And” between values parts separate entries of the source, which are not always exact repeats. Equal entries are not always repeated. Where two headings read alike, the source gives them in different places.

What was measured:
[1] = in vitro
[2] = for mean and individual trough concentrations: LLOQ 1.00 ng/ml; for time of peak of mean plasma concentration: MAD BID
clinical [3] = conditions: human, in vivo
CV-A16 = assay: microbe, parasite or virus in culture; type: cell-based; conditions: Enterovirus A, CVA16
in vivo [4] = conditions: rat, po
poliovirus = conditions: in vitro, in combination with capsid inhibitors including pocapavir; cited from earlier work
[5] = healthy adult males (n = 14), single oral doses 200 mg to 2,000 mg; cited from earlier work
healthy adult volunteers [6] = assay: Phase 1 MAD study, safety and tolerability
clinical [7] = conditions: human, in vivo; remark: listed apart in the source
healthy adult volunteers [8] = assay: Phase 1 SAD study, safety and tolerability
ECV-11 isolates = assay: organism not typed; type: cell-based; conditions: read-out: EC50, range
in vivo [9] = conditions: dog, po
[10] = tested on: EV panel comprising 47 PV strains and 36 nonpolio EV strains; assay: microbe, parasite or virus in culture; type: cell-based; conditions: Enterovirus, read-out: EC50, mean
[11] = MAD, one participant, 2,000 mg BID cohort, day 7, normal two days later
[12] = SAD, 10-fold increase in dose from 200 mg to 2,000 mg

**Q.** Which genotoxicity study results [1] does the source give for `C#CC[C@@H](C(=O)N[C@H](/C=C/C(=O)OCC)C[C@@H]1CCNC1=O)n1cccc(NC(=O)c2cc(C)on2)c1=O` [V-7404] here?
**A.** The genotoxicity study results was “negative”.

**Q.** What about the “mean and individual trough concentrations” value ([2]; MAD 500 mg QD, days 2, 3, 7, 11 and 14) of the same compound?
**A.** The value was “BLQ”.

**Q.** What about the “mean and individual trough concentrations” value ([2]; MAD 1,000 mg QD, days 2, 3, 7, 11 and 14) of the same compound?
**A.** The value was “BLQ”.

**Q.** And the “accumulation (RAUC and RCmax)” value ([2]; MAD 2,000 mg BID, day 14)?
**A.** The value was “no accumulation”.

**Q.** And the mean trough concentrations ([2]; MAD 2,000 mg BID, days 2, 3, 7, 11 and 14)?
**A.** Its mean trough concentrations is “either BLQ or were less than twice the LLOQ of 1.00 ng/ml”.

**Q.** What about the “time of peak of mean plasma concentration” value ([2]; following the first dose of the day) of the same compound?
**A.** Its value is 0.50 h.

**Q.** And the “time of peak of mean plasma concentration” value ([2]; following the second dose of the day, day 1)?
**A.** The value was 0.75 h.

**Q.** And the “time of peak of mean plasma concentration” value ([2]; following the second dose of the day, day 14)?
**A.** The value was 0.50 h.

**Q.** And the “RAUC and RCmax, all ratios” value ([2]; MAD QD, day 14, all dose levels)?
**A.** Its value is “less than 1.5”.

**Q.** What about the mean trough concentrations ([2]; MAD, 2,000 mg QD) of the same compound?
**A.** Its mean trough concentrations is “either BLQ or were less than twice the lower limit of quantification (LLOQ) of 1.00 ng/ml”.

**Q.** What about the CL/F ([2]; human, in vivo) of the same compound?
**A.** The CL/F was 1,987 liters/h.

**Q.** And the CLss/F ([2]; human, in vivo)?
**A.** The CLss/F was 2125 L/h.

**Q.** And the Vz/F ([2]; human, in vivo)?
**A.** Its Vz/F is 6542 L.

**Q.** What about the t1/2 ([2]; human, in vivo) of the same compound?
**A.** The t1/2 was 136.2 min.

**Q.** And the CL/F ([2]; human, in vivo, po, 500 mg)?
**A.** Its CL/F is 2,076 liters/h.

**Q.** What about the “CL/F (CLss/F)” value ([2]; human, in vivo, po, 500 mg) of the same compound?
**A.** The value was 1,656 liters/h.

**Q.** And the Tmax (clinical [3])?
**A.** The Tmax was 15 to 37.8 min.

**Q.** And the AUC(0-inf) (clinical [3]; po, 200 mg, AUC (AUC0–inf))?
**A.** Its AUC(0-inf) is 77.4 ng·h/mL.

**Q.** And the Cmax (clinical [3]; po, 200 mg, Cmax)?
**A.** The Cmax was 83.3 ng/mL.

**Q.** What about the Vd/F (clinical [3]; po, 200 mg, Vz/F) of the same compound?
**A.** Its Vd/F is 1170 L.

**Q.** What about the half-life (clinical [3]; po, 200 mg, t1/2) of the same compound?
**A.** The half-life was 18.9 min.

**Q.** And the Tmax (clinical [3]; po, 200 mg, tmax)?
**A.** The Tmax was 30 min.

**Q.** And the half-life (clinical [3]; t1/2, range across cohorts)?
**A.** The half-life was 19.2 to 140 min.

**Q.** And the EC50 (CV-A16)?
**A.** Its EC50 is 5.99 µM.

**Q.** What about the NOAEL (in vivo [4]) of the same compound?
**A.** The NOAEL was 1500 mg/kg/day.

**Q.** What about the “activity in combination with antiviral capsid inhibitors” value (poliovirus) of the same compound?
**A.** The value was “synergistic activity”.

**Q.** What about the tolerability [5] of the same compound?
**A.** Its tolerability is “well tolerated with no serious adverse events (SAEs)”.

**Q.** What about the “deaths or SAEs” value (healthy adult volunteers [6]; MAD study) of the same compound?
**A.** The value was “No deaths or SAEs were reported”.

**Q.** And the “proportion of related TEAEs” value (healthy adult volunteers [6]; MAD, 1,000 mg QD)?
**A.** Its value is 12.5%.

**Q.** And the “proportion of related TEAEs” value (healthy adult volunteers [6]; MAD, 2,000 mg BID)?
**A.** The value was 75%.

**Q.** And the “participants with increased lipase levels (asymptomatic) leading to discontinuation” value (healthy adult volunteers [6]; MAD, 2,000 mg BID cohort, 1/41 participants)?
**A.** The value was 2.4%.

**Q.** And the “proportion of related TEAEs” value (healthy adult volunteers [6]; MAD, 2,000 mg QD)?
**A.** The value was 22.2%.

**Q.** And the “participants with moderate TEAEs” value (healthy adult volunteers [6]; MAD, V-7404 group, 2/33 participants)?
**A.** The value was 6.1%.

**Q.** What about the “participants with mild TEAEs” value (healthy adult volunteers [6]; MAD, V-7404 group, 10/33 participants) of the same compound?
**A.** The value was 30.3%.

**Q.** And the amylase (healthy adult volunteers [6]; [11])?
**A.** The amylase was 2.7 × ULN.

**Q.** And the lipase (healthy adult volunteers [6]; [11])?
**A.** Its lipase is 4.5 × ULN.

**Q.** What about the Tmax (clinical [7]) of the same compound?
**A.** Its Tmax is 15 to 30 min.

**Q.** And the Vd/F (clinical [7]; Vz/F)?
**A.** Its Vd/F is 3780 L.

**Q.** What about the AUC (clinical [7]; po, 500 mg, AUC (AUC0–tau)) of the same compound?
**A.** The AUC was 302 ng·h/mL.

**Q.** And the Cmax (clinical [7]; po, 500 mg, Cmax)?
**A.** Its Cmax is 247 ng/mL.

**Q.** What about the Cmax at 14 days (clinical [7]; po, 500 mg, Cmax) of the same compound?
**A.** The Cmax at 14 days was 370 ng/mL.

**Q.** And the Vd/F at 14 days (clinical [7]; po, 500 mg, Vz/F)?
**A.** The Vd/F at 14 days was 3020 L.

**Q.** And the Tmax (clinical [7]; po, 500 mg, tmax)?
**A.** Its Tmax is 28.8 min.

**Q.** What about the Tmax at 14 days (clinical [7]; po, 500 mg, tmax) of the same compound?
**A.** Its Tmax at 14 days is 15 min.

**Q.** And the half-life (clinical [7]; t1/2)?
**A.** The half-life was 79.2 min.

**Q.** And the Tmax (clinical [7]; tmax(0–4 h))?
**A.** The Tmax was 30 min.

**Q.** What about the Tmax (clinical [7]; tmax(4–24 h)) of the same compound?
**A.** Its Tmax is 45 min.

**Q.** What about the “deaths or SAEs” value (healthy adult volunteers [8]; SAD study) of the same compound?
**A.** The value was “No deaths or SAEs were reported”.

**Q.** What about the “participants with moderate TEAEs” value (healthy adult volunteers [8]; SAD, V-7404 group, 1/24 participants) of the same compound?
**A.** The value was 4.2%.

**Q.** What about the “participants with mild treatment-emergent AEs (TEAEs)” value (healthy adult volunteers [8]; SAD, V-7404 group, 4/24 participants) of the same compound?
**A.** The value was 16.7%.

**Q.** What about the elevated lipase (healthy adult volunteers [8]; SAD, one participant, 1,000 mg cohort, day 2, asymptomatic, normal 3 days later) of the same compound?
**A.** Its elevated lipase is 4.0 × the upper limit of normal (U.

**Q.** What about the EC50 (ECV-11 isolates) of the same compound?
**A.** Its EC50 is 0.032 to 0.352 µM.

**Q.** What about the NOAEL (in vivo [9]) of the same compound?
**A.** Its NOAEL is 1500 mg/kg/day.

**Q.** What about the EC50 [10] of the same compound?
**A.** Its EC50 is 379 nM and 0.198 µg/mL.

**Q.** And the “geometric mean AUC0–inf lower for fed compared to fasted” value (SAD 500 mg)?
**A.** The value was 50%.

**Q.** And the “geometric mean Cmax lower for fed compared to fasted” value (SAD 500 mg)?
**A.** The value was 66%.

**Q.** And the “increase of geometric mean AUC0–inf” value [12]?
**A.** Its value is 14.2 fold.

**Q.** And the “increase of geometric mean Cmax” value [12]?
**A.** Its value is 7.6 fold.

**Q.** And the “time of peak of mean plasma concentrations” value (human, in vivo)?
**A.** The value was 0.25 to 0.75 h.

**Q.** And the Cmax (human, in vivo, po, 500 mg)?
**A.** The Cmax was 366.6 ng/mL.
